Laboratory results taken from ChEMBL document CHEMBL1201862, “PubChem BioAssay data set” (2004).
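Method: 48-hour compound exposure of cells in 96-well plates, five concentrations, linear interpolation of endpoints. Abbreviation: GI50, concentration required for 50% inhibition of growth.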 Calls of active or inactive are those of the source. Rule as the data show it: active = GI50 up to about 1.1 µM and inactive = higher.

Key:
Experiment in all cases: inhibition of tumour cell growth, NCI panel, 48 h
UACC-62 = tested on: UACC-62
SF-539 = tested on: SF-539
HCT-15 = tested on: HCT-15
A498 = tested on: A498
SK-MEL-2 = tested on: SK-MEL-2
SR = tested on: SR
NCI-H460 = tested on: NCI-H460
LXFL 529 = tested on: LXFL 529
ACHN = tested on: ACHN
NCI-H23 = tested on: NCI-H23
RXF 631 = tested on: RXF 631
UO-31 = tested on: UO-31
K562 = tested on: K562
SF-268 = tested on: SF-268
SNB-75 = tested on: SNB-75
HOP-62 = tested on: HOP-62
786-0 = tested on: 786-0
SK-MEL-5 = tested on: SK-MEL-5
LOX IMVI = tested on: LOX IMVI
M14 = tested on: M14
OVCAR-4 = tested on: OVCAR-4
NCI-H226 = tested on: NCI-H226
COLO 205 = tested on: COLO 205
SW-620 = tested on: SW-620
MOLT-4 = tested on: MOLT-4
DMS-114 = tested on: DMS-114
SK-MEL-28 = tested on: SK-MEL-28
RPMI-8226 = tested on: RPMI-8226
UACC-257 = tested on: UACC-257
RXF 393 = tested on: RXF 393
SN12C = tested on: SN12C
SF-295 = tested on: SF-295
HCT-116 = tested on: HCT-116
Malme-3M = tested on: Malme-3M
HCC 2998 = tested on: HCC 2998
OVCAR-3 = tested on: OVCAR-3
OVCAR-8 = tested on: OVCAR-8
HL-60 = tested on: HL-60
DLD-1 = tested on: DLD-1
IGROV-1 = tested on: IGROV-1
DMS-273 = tested on: DMS-273
KM-20L2 = tested on: KM-20L2
SNB-19 = tested on: SNB-19
A549 = tested on: A549
TK-10 = tested on: TK-10
M19-MEL = tested on: M19-MEL
EKVX = tested on: EKVX
CCRF-CEM = tested on: CCRF-CEM
HT-29 = tested on: HT-29
U-251 = tested on: U-251
HOP-92 = tested on: HOP-92
CAKI-1 = tested on: CAKI-1
SK-OV-3 = tested on: SK-OV-3
NCI-H522 = tested on: NCI-H522
HOP-18 = tested on: HOP-18
SNB-78 = tested on: SNB-78

With `CCOC(=O)C(C)(C)Oc1ccc2c(-c3ccc(Cl)cc3)cc(=O)oc2c1` the GI50 (UACC-62) was > 100 µM (inactive), the GI50 (SF-539) was > 100 µM (inactive) and the GI50 (HCT-15) was over 100 µM. For the same compound, the GI50 (A498) was > 100 µM (inactive), the GI50 (SK-MEL-2) was > 100 µM (inactive) and the GI50 (SR) was > 100 µM (inactive). For the same compound, the GI50 (NCI-H460) was > 100 µM (inactive), the GI50 (LXFL 529) was > 100 µM (inactive) and the GI50 (ACHN) was > 100 µM (inactive). For the same compound, the GI50 (NCI-H23) was > 100 µM (inactive), the GI50 (RXF 631) was > 100 µM (inactive) and the GI50 (UO-31) was > 100 µM (inactive). For the same compound, the GI50 (K562) was > 100 µM (inactive), the GI50 (SF-268) was > 100 µM (inactive) and the GI50 (SNB-75) was 19.3 µM (inactive). The GI50 (HOP-62) was > 100 µM (inactive), the GI50 (786-0) was > 100 µM (inactive) and the GI50 (SK-MEL-5) was 74.8 µM (inactive). The GI50 (LOX IMVI) was > 100 µM (inactive), the GI50 (M14) was > 100 µM (inactive) and the GI50 (OVCAR-4) was > 100 µM (inactive). For the same compound, the GI50 (NCI-H226) was > 100 µM (inactive), the GI50 (COLO 205) was > 100 µM (inactive) and the GI50 (SW-620) was > 100 µM (inactive). For the same compound, the GI50 (MOLT-4) was > 100 µM (inactive), the GI50 (DMS-114) was > 100 µM (inactive) and the GI50 (SK-MEL-28) was > 100 µM (inactive). The GI50 (RPMI-8226) was > 100 µM (inactive), the GI50 (UACC-257) was > 100 µM (inactive) and the GI50 (RXF 393) was > 100 µM (inactive). For the same compound, the GI50 (SN12C) was > 100 µM (inactive), the GI50 (SF-295) was > 100 µM (inactive) and the GI50 (HCT-116) was > 100 µM (inactive). The GI50 (Malme-3M) was > 100 µM (inactive), the GI50 (HCC 2998) was > 100 µM (inactive) and the GI50 (OVCAR-3) was > 100 µM (inactive). The GI50 (OVCAR-8) was > 100 µM (inactive), the GI50 (HL-60) was > 100 µM (inactive) and the GI50 (DLD-1) was > 100 µM (inactive). For the same compound, the GI50 (IGROV-1) was > 100 µM (inactive), the GI50 (DMS-273) was > 100 µM (inactive) and the GI50 (KM-20L2) was > 100 µM (inactive). The GI50 (SNB-19) was > 100 µM (inactive), the GI50 (A549) was > 100 µM (inactive) and the GI50 (TK-10) was > 100 µM (inactive). The GI50 (M19-MEL) was > 100 µM (inactive), the GI50 (EKVX) was > 100 µM (inactive) and the GI50 (CCRF-CEM) was > 100 µM (inactive). The GI50 (HT-29) was > 100 µM (inactive) and the GI50 (U-251) was > 100 µM (inactive).

For `CCC(C)CC(C)CC(C)/C=C(\C)C1=C(C)CC(C)(O)O1` (stereo unspecified), the GI50 (UACC-62) was > 100 µM (inactive), the GI50 (SF-539) was > 100 µM (inactive) and the GI50 (HCT-15) was over 100 µM. For the same compound, the GI50 (A498) was > 100 µM (inactive), the GI50 (NCI-H460) was 65.6 µM (inactive) and the GI50 (LXFL 529) was 53 µM (inactive). For the same compound, the GI50 (ACHN) was 87.5 µM (inactive), the GI50 (HOP-92) was 18.3 µM (inactive) and the GI50 (NCI-H23) was 76.4 µM (inactive). For the same compound, the GI50 (RXF 631) was > 100 µM (inactive), the GI50 (UO-31) was 26.3 µM (inactive) and the GI50 (K562) was 46.7 µM (inactive). The GI50 (SNB-75) was > 100 µM (inactive), the GI50 (786-0) was 9.53 µM (inactive) and the GI50 (SK-MEL-5) was 92.5 µM (inactive). The GI50 (LOX IMVI) was > 100 µM (inactive), the GI50 (M14) was > 100 µM (inactive) and the GI50 (NCI-H226) was 76.9 µM (inactive). For the same compound, the GI50 (COLO 205) was > 100 µM (inactive), the GI50 (SW-620) was > 100 µM (inactive) and the GI50 (MOLT-4) was 35.7 µM (inactive). For the same compound, the GI50 (DMS-114) was 64.1 µM (inactive), the GI50 (SK-MEL-28) was > 100 µM (inactive) and the GI50 (RPMI-8226) was 24.4 µM (inactive). For the same compound, the GI50 (CAKI-1) was 79.8 µM (inactive), the GI50 (UACC-257) was 79.1 µM (inactive) and the GI50 (RXF 393) was 88.9 µM (inactive). For the same compound, the GI50 (SN12C) was 90.4 µM (inactive), the GI50 (HCT-116) was 41 µM (inactive) and the GI50 (HCC 2998) was > 100 µM (inactive). The GI50 (OVCAR-8) was 69.7 µM (inactive), the GI50 (HL-60) was 23.7 µM (inactive) and the GI50 (DLD-1) was > 100 µM (inactive). The GI50 (IGROV-1) was > 100 µM (inactive), the GI50 (DMS-273) was 98.4 µM (inactive) and the GI50 (SK-OV-3) was > 100 µM (inactive). The GI50 (A549) was 85.7 µM (inactive), the GI50 (TK-10) was > 100 µM (inactive) and the GI50 (NCI-H522) was 42.2 µM (inactive). For the same compound, the GI50 (HOP-18) was > 100 µM (inactive), the GI50 (M19-MEL) was > 100 µM (inactive) and the GI50 (EKVX) was > 100 µM (inactive). For the same compound, the GI50 (SNB-78) was 86.9 µM (inactive), the GI50 (CCRF-CEM) was 52.6 µM (inactive) and the GI50 (HT-29) was 93.8 µM (inactive). For the same compound, the GI50 (U-251) was 61.8 µM (inactive).
